Assay results from patent publication US6750211B2, “Diimino compounds for use as modulators of cell regulation” (Emory University, priority 1999, dated 2004).

Tested on: J774A.1 cells
Test: Suppression of the sphingosine "burst" on change to new medium
Type: cell-based, murine
Protocol: J774A.1 cells (No. TIB 67, a murine macrophage-like transformed cell line) were obtained from the American Type Culture Collection (Rockville, Md.) and grown in DMEM and 10% FBS and sodium bicarbonate (3.7 g/l) in a spinner flask at 37° C. and an atmosphere of 5% CO2. Cells were passaged every two to three days by a 1:4 dilution with fresh medium to a density of approximately 2.5×10^5 cells/ml. Cells were used between passages 3 and 24.
Unless indicated differently, suspended cells were removed from the spinner flask, collected by gentle centrifugation (in a table top centrifuge), resuspended in new medium, added to 60 mm tissue culture dishes at 5 to 7.5×10^5 cells per 2 ml of medium. Under these conditions, the cells adhere to the dish rather than grow in suspension. The cells were incubated at 37° C., 5% CO2, for three days before beginning by removing the conditioned medium and adding fresh medium to initiate the “burst”.
After incubation of the cells, the medium was removed, 0.5 ml of ice-cold methanol added, and the cells scraped from the dishes with a rubber spatula. The plates were scraped again with 0.4 ml of deionized water, followed by 0.4 ml of methanol. Cells and washes were pooled in 13×100 mm test tubes, 200 to 300 pmol of C20-sphinganine added as an internal standard, and the long-chain bases extracted- and analyzed by HPLC (as described by Merrill, A. H., Jr., et al., (1988) Anal. Biochem. 171, 373-381) with C20-sphinganine as an internal standard.

Row | Structure (SMILES) | IC50 (Mus musculus, J774.A1, titration with purified fraction III added with DMEM, concentration approximated from TNBS amine estimate, FIG. 9, read-out: apparent concentration for 50% suppression of the sphingosine burst) [µM] | fold more concentrated than conditioned medium (volume to volume comparison of amount needed to suppress the burst) (compared with conditioned medium) | volume giving 50% suppression of the sphingosine burst (purified fraction III (amine concentration about 200 mM) added with DMEM, FIG. 9) [µL] | share of the suppression of the sphingosine burst accounted for by the ammonia concentration of conditioned medium (at most time points, calculated from FIGS. 6A and B, FIG. 7) | suppression of the sphingosine burst (in words) (sphingosine measured after adding medium to J774 cells)
1 | N=C1NC(=N)C(CCCCN)NC1CCCCN (single isomer, unassigned) [fraction III, 2,6-bis-(ω-aminobutyl)-3,5-diimino-piperazine] | 1000 to 3000 | greater than 200 fold | 30 |  | 
2 | N [NH4^+, reference compound] |  |  |  | greater than 50% | shown to suppress the sphingosine burst
